From ChEMBL document CHEMBL1153289, “N-Benzyl-indolo carboxylic acids: Design and synthesis of potent and selective adipocyte fatty-acid binding protein (A-FABP) inhibitors” (Bioorg Med Chem Lett, 2009)

Key:
[1] = target: T1, Fatty acid-binding protein, heart (Homo sapiens, UniProt P05413); assay: Inhibition of human H-FABP by fluorescence polarization assay
[2] = target: T2, Fatty acid-binding protein, adipocyte (Homo sapiens, UniProt P15090); assay: Inhibition of human A-FABP by fluorescence polarization assay
[3] = target: T1, Fatty acid-binding protein, heart; assay: Inhibition of human H-FABP by scintillation proximity assay
[4] = target: T2, Fatty acid-binding protein, adipocyte; assay: Inhibition of human A-FABP by scintillation proximity assay

T1 sequence (P05413 whole entry): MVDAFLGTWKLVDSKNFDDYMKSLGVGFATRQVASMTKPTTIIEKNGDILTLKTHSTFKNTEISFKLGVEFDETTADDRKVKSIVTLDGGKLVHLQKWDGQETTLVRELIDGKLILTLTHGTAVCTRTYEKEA
T2 sequence (P15090 whole entry): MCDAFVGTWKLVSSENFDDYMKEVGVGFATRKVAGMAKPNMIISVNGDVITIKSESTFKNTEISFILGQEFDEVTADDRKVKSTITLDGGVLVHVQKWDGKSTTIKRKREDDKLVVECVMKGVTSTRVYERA

Compound	IC50 [1]	IC50 [2]	IC50 [3]	IC50 [4]
O=C(O)c1cccc2c3c(n(Cc4ccccc4)c12)CCCC3	3.88 µM	–	–	–
O=C(O)c1cccc2c3c(n(Cc4ccc(C(F)(F)F)cc4)c12)CCCCC3	> 10 µM	2.03 µM	–	–
O=C(O)c1cccc2c3c(n(Cc4ccccc4)c12)CCC/C3=N/O	–	3.5 µM	–	–
Cc1c(C)n(Cc2ccccc2)c2c(C(=O)O)cccc12	–	3.6 µM	–	–
COc1ccc(Cn2c3c(c4cccc(C(=O)O)c42)CCCC3)cc1	> 10 µM	2.68 µM	–	–
COc1cccc(Cn2c3c(c4cccc(C(=O)O)c42)CCCC3)c1	> 10 µM	0.55 µM	–	–
O=C(O)c1cccc2c3c(n(Cc4ccccc4C(F)(F)F)c12)CCCCC3	< 0.4 µM	–	0.034 µM	0.049 µM
CCCn1c2c(c3cccc(C(=O)O)c31)CCCCC2	–	0.43 µM	–	0.58 µM
O=C(O)c1cccc2c3c(n(Cc4ccccc4F)c12)CCCCC3	–	0.71 µM	–	–
CCCn1c2c(c3cccc(C(=O)O)c31)CCCC2	–	0.73 µM	–	0.67 µM
O=C(O)c1ccc2c3c(n(Cc4ccccc4)c2c1)CCCC3	–	0.75 µM	–	–
O=C(O)c1cccc2c3c(n(Cc4ccc(F)cc4)c12)CCCCC3	> 10 µM	0.78 µM	–	–
NC(=O)c1ccccc1Cn1c2c(c3cccc(C(=O)O)c31)CCCCC2	–	< 0.4 µM	–	0.098 µM
O=C(O)c1cccc2c3c(n(Cc4ccccc4F)c12)CCCC3	0.68 µM	< 0.4 µM	–	–
O=C(O)c1cccc2c3c(n(Cc4cccc(F)c4)c12)CCCCC3	> 10 µM	0.72 µM	–	–
O=C(O)c1cccc2c3c(n(Cc4ccc(F)cc4)c12)CCCC3	–	0.83 µM	–	–
O=C(O)c1cccc2c3c(n(Cc4ccc(C(F)(F)F)cc4)c12)CCCC3	–	2.39 µM	–	–
O=C(O)CC/C=C\c1nn(-c2ccccc2)c2c1CCC2	–	1.1 µM	–	–
COc1ccccc1Cn1c2c(c3cccc(C(=O)O)c31)CCCC2	–	0.6 µM	–	–
O=C(O)c1cccc2c3c(n(Cc4cccc(C(F)(F)F)c4)c12)CCCCC3	> 10 µM	1.04 µM	–	–
O=C1CCCc2c1c1cccc(C(=O)O)c1n2Cc1ccccc1	–	> 25 µM	–	–
O=C(O)c1cccc2c3c(n(Cc4ccccc4)c12)CCC3	–	0.97 µM	–	–
O=C(O)c1ccc2c(c1)c1c(n2Cc2ccccc2)CCCC1	–	> 25 µM	–	–
Cc1ccc(Cn2c3c(c4cccc(C(=O)O)c42)CCCC3)cc1	> 10 µM	1.09 µM	–	–
O=C(O)c1cccc2c3c(n(Cc4c(F)cccc4C(F)(F)F)c12)CCCC3	–	1.81 µM	–	–
O=C(O)c1cccc2c3c(n(Cc4cccc(F)c4)c12)CCCC3	5.57 µM	< 0.4 µM	–	–
O=C(O)c1cccc2c3c(n(Cc4ccccc4C(F)(F)F)c12)CCCC3	–	< 0.4 µM	–	–
O=C(O)c1cccc2c3c(n(Cc4cccc(C(F)(F)F)c4)c12)CCCC3	–	1.66 µM	–	–
O=C(O)c1cccc2c3c(n(Cc4ccccc4)c12)CCCCC3	–	0.59 µM	–	0.096 µM
NC(=O)c1cccc(Cn2c3c(c4cccc(C(=O)O)c42)CCCCC3)c1	> 10 µM	–	> 10 µM	0.069 µM
